Series [1] deals with CD4+ and CD8+ T lymphocytes. In words: T cell growth/proliferation, mouse splenocytes with anti-CD3 and anti-CD28 antibodies, flow cytometry. The class given is cell-based, C57BL/6J mouse. Here is the method:
(§1) FIGS. 1A-B. Freshly harvested C57BL/6 splenocytes were seeded at 80,000 cells/well in a 96-well plate coated with anti-mouse CD3 (10 ug/ml) and anti-mouse CD28 (1 ug/ml) antibodies. After 24 hour incubation with HBB (0-50 uM), cells were then labeled with anti-mouse CD4-eFlour450, anti-mouse CD8 FITC and anti-mouse Thy1.2 APC-eFluor780 antibodies and analyzed by a flowcytometer. Thy1.2 positive single lymphocytes were gated as T cells and CD4 positive and CD8 positive cells were counted. FIG. 1A. Results are expressed as mean±S.D. (n=6). FIG. 1B. MCF-7 breast cancer cells were incubated in the same concentration range of HBB, also for 24 hours. MTT assay of cell numbers.
(§2) FIG. 4. Freshly harvested C57BL/6 splenocytes were seeded at 80,000 cells/well in a 96-well plate coated with anti-mouse CD3 (10 ug/ml) and anti-mouse CD28 (1 ug/ml) antibodies. After 24 hour incubation with metformin (0-10 mM), cells were then labeled with anti-mouse CD4-eFlour450, anti-mouse CD8 FITC and anti-mouse Thy1.2 APC-eFluor780 antibodies and analyzed by a flowcytometer. Thy1.2 positive single lymphocytes were gated as T cells and CD4 positive and CD8 positive cells were counted.
(§3) HBB effects on T cell growth were tested across a range of concentrations (0 to 50 uM). C57BL/6J mouse splenocytes were incubated with or without biguanides in the presence of anti-mouse CD3 and anti-mouse CD28 antibodies. After 24 hours, cells were labeled with fluorescently tagged antibodies to mouse Thy-1, CD4, CD8, CD25, CD44, CD62L and CD73 surface antigens and T cell subsets were analyzed by flow cytometry.
On the technique in general: Flow cytometry measures light scatter and fluorescence of single cells or particles in a stream.

The next series concerns CD4+ T lymphocytes. In words: T cell proliferation, mouse splenocytes with anti-CD3 and anti-CD28 antibodies, flow cytometry. It counts as cell-based, C57BL/6J mouse. Here is the method:
as §1, §2, §3

For the next series, the system named is CD8+ T lymphocytes. The description is as above. It counts as cell-based, C57BL/6J mouse. As to the method: as §1, §2, §3
The conditions of series [2]: rodents; cited from earlier work.
Series [3] concerns breast cancer cell lines and established mouse mammary tumors. Particulars: cited from earlier work.
The test system of series [4] is CD4+CD25+FOXP3- progenitor cells. The experiment in a line: TRP conversion assay (IL2-dependent conversion into Tregs). It counts as cell-based. Particulars: 1 U/mL IL2, 3 days. The text has this: (§4) Each TRP (CD4+CD25+FOXP3- or CD4+CD25−FOXP3+) population was isolated by FACS and stimulated with 1 U/mL IL2 (in complete RPMI) for 3 days then analyzed for upregulation of CD25 and FOXP3 (by GFP reporter).

For series [5], the system named is CD4+CD25−FOXP3+ progenitor cells. The description is as above. As to conditions: 1 U/mL IL2, 3 days. The class given is cell-based.
From the text: as §4

The target in series [6] is T1, CYP3A4 (Homo sapiens, UniProt P08684). As to conditions: cited from earlier work.
For series [7], the target named is T1, CYP3A4. Particulars: compared with metformin; cited from earlier work.
For series [8], the system named is Naive, non-Treg CD4 T cells. In words: iTreg differentiation. It counts as cell-based. As to conditions: IL2 and TGFb, 3 days. Here is the method: Naive, non-Treg CD4 T cells were first isolated (these are isolated by magnetic depletion on CD8, CD11b, CD11c, CD19, CD24, CD25, CD44, CD49b, CD105, MHC-II, Gr1, Ter119, B220, TCRg/d). These cells were stimulated with plate bound anti-CD3/CD28 (plates were coated with 5 ug/mL for 2 hours at 37° C.) and given 100 U/mL IL2, 5 ng/mL TGFb and an additional 1 ug/mL anti-Cd28 in cRPMI. After 3 days the cells were stained for CD4, CD8 and CD25 with FOXP3 being on the GFP reporter. Tregs are defined here as CD25+FOXP3+. For this assay, 300,000 cells were plated per well in a 24 well plate.

For series [9], the system named is MCF-7 breast cancer cells. In words: MTT assay of cell numbers, MCF-7. It counts as cell-based. Particulars: 0-50 uM, 24 hours, concentrations that induce CD4 and CD8 T cell growth. As to the method: as §1
Background: Formazan colour is commonly taken as a measure of viable cells.

T1 sequence (P08684 whole entry): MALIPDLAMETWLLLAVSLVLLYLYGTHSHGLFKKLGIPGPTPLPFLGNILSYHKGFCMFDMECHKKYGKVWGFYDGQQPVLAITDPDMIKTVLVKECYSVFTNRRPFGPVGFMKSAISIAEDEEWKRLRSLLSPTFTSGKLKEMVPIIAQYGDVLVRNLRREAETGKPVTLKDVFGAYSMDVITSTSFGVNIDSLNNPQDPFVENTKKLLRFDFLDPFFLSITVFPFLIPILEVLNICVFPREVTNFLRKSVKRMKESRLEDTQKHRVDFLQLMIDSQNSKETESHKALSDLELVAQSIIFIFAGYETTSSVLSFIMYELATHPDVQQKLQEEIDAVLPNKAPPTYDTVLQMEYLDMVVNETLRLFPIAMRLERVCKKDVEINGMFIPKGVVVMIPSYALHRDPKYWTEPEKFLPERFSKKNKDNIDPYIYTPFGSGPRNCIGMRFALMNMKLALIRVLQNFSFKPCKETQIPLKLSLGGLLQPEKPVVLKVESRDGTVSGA

Turning to `CN(C)C(=N)N=C(N)N` [metformin, reference compound], in series [1] (concentrations below 5 mM), the “proliferation-inducing activity for T cells” value was “failed to show proliferation-inducing activity”. Further, in [1] (metformin, 24 hours, FIG. 4), the “concentrations causing an increase of CD4+ and CD8+ T lymphocytes” value is on record as over 5 mM. In addition, the “increase of CD4+ T cells” value in the series on CD4+ T lymphocytes (10 mM) amounted to 30%. Further, the “increase of CD8+ T cells” value in the series with CD8+ T lymphocytes (10 mM) amounted to 14%. The maximum tissue concentrations result in [2] is listed as “about 500 microM”. Besides, the “concentration range of activity against breast cancer cells” value in series [3] is listed as about 5 mM.

The term IC50 denotes the midpoint of a concentration-inhibition curve. On to `CCCCCCNC(=N)NC(=N)NCc1ccccc1` [HBB, N1-hexyl-N5-benzyl biguanide], for which the “IL2-dependent conversion into Tregs” value in [4] and in series [5] was “blocks” each time. Further, in [1], the “greater potency for T cell effects relative to metformin” value is recorded as 1000 fold. Moreover, the “T cell growth at low concentrations” value in series [1] (0.09 to 1.5 uM, 24 hours) is given as “did not inhibit”. Besides, the “inhibition of CYP3A4 AA epoxygenase activity” value on CYP3A4 [6] is “potently and specifically inhibits”. Moreover, the “proliferation of CD4+ T lymphocytes” value in the series with CD4+ T lymphocytes (6 to 12 uM, P<0.05) is recorded as 1.9 fold. Also, the “increase of CD4+ T cells” value in the series on CD4+ T lymphocytes (6 to 12 microM) was found to be 90%. For the same molecule, in the series with CD4+ T lymphocytes (at 1000-fold lower concentration), the “effectiveness for expansion of CD4+ T cells ex vivo relative to metformin” value stood at 3 fold. Moreover, the “proliferation of CD8+ T lymphocytes” value in the series on CD8+ T lymphocytes (6 to 12 uM, P<0.05) stood at 1.6 fold. In addition, the “increase of CD8+ T cells” value in the series with CD8+ T lymphocytes (6 to 12 microM) is 60%. In addition, in the series on CD8+ T lymphocytes (at 1000-fold lower concentration than metformin), the “effectiveness for expansion of CD8+ T cells ex vivo relative to metformin” value is given as 5 fold. The “affinity for the CYP3A4 heme” value at CYP3A4 [7] was “higher affinity than metformin”. The “FOXP3 and CD25 expression of the Treg cells generated” value in [8] is “expressed less FOXP3 and CD25”. For the same molecule, in series [8], the “differentiation of naive T cells into Tregs” value is recorded as “inhibits”. Also, the “growth of MCF-7 breast cancer cells” value in series [9] was “inhibit growth”. For the same molecule, in series [3], the “concentration range of activity against breast cancer cells” value was about 0.02 mM. Also, in [3] (read-out: IC50, OCR and growth inhibition), the IC50 is 3 to 30 µM.

These data come from patent US20190298666A1, “PROMOTION OF T LYMPHOCYTE PROLIFERATION” (Regents of the University of Minnesota, priority 2018, published 2019).
